Source: US9579319B2 (Redx Pharma PLC, priority 2013, dated 2017)
pIC50: −log10 of the molar value. Like-named read-outs stand apart in the source and are kept apart here.

Target: Hedgehog signalling pathway
Assay: Gli-reporter NIH3T3 luciferase assay (Hedgehog pathway inhibition)
Format: cell-based
Conditions: Gli-reporter NIH-3T3 cells, recombinant mouse sonic hedgehog, 24 hours, luminescence; for IC50: read-out: Gli Luc nM (IC50)
Procedure: In vitro biological evaluation of compounds of the invention was carried out using the procedure detailed below. The procedure provides activity data for the compounds of the invention against the Hedgehog signalling pathway. The activity is represented as IC50 values in Table 12 below.
The Gli-reporter NIH3T3 cell line (BPS Biosciences) was grown according to the suppliers recommendations. Briefly, cells were maintained in growth medium (DMEM supplemented with 10% calf serum, 1% Penicillin/Streptomycin, and 500 µg/mL of Geneticin) and grown at 37° C., 5% CO2. In order to passage cells they were first rinsed with phosphate buffered saline before the addition of 0.05% Trypsin/EDTA. Fresh growth media was added and the cells were transferred to a centrifuge tube, spun and resuspended at an appropriate cell density.
Gli-reporter NIH-3T3 cells were seeded at 20,000 cells/well into 96 well, poly-D-lysine coated white clear bottomed full area TC plates in growth media (without geneticin). Three wells were left with just media as cell free controls. Cells were then incubated for 24 hours at 37° C. in a 5% CO2.
Serial dilutions of the test compounds were prepared in 100% DMSO. 10 μl of compound or DMSO from each well was pipetted into a sterile, 0.5 ml deep well conical bottomed 96 well plate (intermediate plate). 190 μl of warmed assay media (Opti-MEM supplemented with 0.5% calf serum, 1% non-essential amino acids, 1 mM sodium pyruvate, 10 mM HEPES, 1% penicillin/Streptomycin) was then added to each well and mixed five times at 180 μl by electronic pipette to ensure homogeneity of the compound solution. This 1:20 dilution gives a top concentration of 50 μM in 5% DMSO, 95% assay media. 10 μl was pipetted from each well of the intermediate plate into a second deep well sterile plate. 490 μl of warm assay media was then added to each well and mixed five times at 300 μl. This gives a final top concentration of 1 μM in 0.1% DMSO.
After the 24 hour incubation, media was carefully removed by pipette and replaced with 45 μl of compound dilutions in triplicate. This was incubated for one hour at 37° C. in a 5% CO2. After an hour, 5 μl 10 μg/mL recombinant mouse sonic hedgehog (R&D Systems) was added to each well and the plates were incubated for a further 24 hours at 37° C., 5% CO2.
After 24 hours, plates were removed from the incubator and left to acclimatise to room temperature for 20 minutes. 50 μl of OneGLO assay reagent (Promega) was then added to each well and the plates gently shaken for a further 30 minutes. Plates were then read for luminescence on the EnVision plate reader (PerkinElmer).

[1] = NIH3T3, read-out: Category (Hedgehog pathway inhibition activity, IC50)

Row | Compound | pIC50 (read-out: Gli luc IC50) | pIC50 [1] | IC50 (NIH3T3)
1 | 1-[4,5-dimethyl-6-(2-methylpyrazol-yl)pyridazin-3-yl]-N-methyl-N-[[2-(trifluoromethoxy)phenyl]methyl]piperidin-4-amine [Example 89] | < 6.70 |  | 
2 | Cn1nccc1-c1nnc(N2CCC(NC(=O)Nc3ccc(F)cc3F)CC2)c2ccccc12 [Example 8] |  | > 8.00 | 0.99 nM
3 | Cn1nccc1-c1nnc(N2CCC(NC(=O)NC3CCCCC3)CC2)c2ccccc12 [Example 11, 1-cyclohexyl-3-[1-[4-(2-methylpyrazol-3-yl)phthalazin-1-yl]-4-piperidyl]urea] |  | > 8.00 | 
4 | CN(Cc1ccccc1OC(F)F)C1CCN(c2nnc(-c3ccnn3C)c3ccccc23)CC1 [Example 12, N-[[2-(difluoromethoxy)phenyl]methyl]-N-methyl-1-[4-(2-methylpyrazol-3-yl)phthalazin-1-yl]piperidin-4-amine] |  | 6.70 to 8.00 | 
5 | Cn1nccc1-c1nnc(N2CCC(NC(=O)Nc3cccc(C(F)(F)F)c3)CC2)c2ccccc12 [Example 13, 1-[1-[4-(2-methylpyrazol-3-yl)phthalazin-1-yl]-4-piperidyl]-3-[3-(trifluoromethyl)phenyl]urea] |  | > 8.00 | 
6 | Cn1nccc1-c1nnc(N2CCC(NC(=O)Nc3ccc(C(F)(F)F)cc3)CC2)c2ccccc12 [Example 14, 1-[1-[4-(2-methylpyrazol-3-yl)phthalazin-1-yl]-4-piperidyl]-3-[4-(trifluoromethyl)phenyl]urea] |  | > 8.00 | 0.71 nM
7 | COc1ccccc1NC(=O)NC1CCN(c2nnc(-c3ccnn3C)c3ccccc23)CC1 [Example 15, 1-(2-methoxyphenyl)-3-[1-[4-(2-methylpyrazol-3-yl)phthalazin-1-yl]-4-piperidyl]urea] |  | > 8.00 | 
8 | Cn1nccc1-c1nnc(N2CCC(NC(=O)Nc3cccc(F)c3)CC2)c2ccccc12 [Example 16, 1-(3-fluorophenyl)-3-[1-[4-(2-methylpyrazol-3-yl)phthalazin-1-yl]-4-piperidyl]urea] |  | > 8.00 | 
9 | CSc1ccccc1CNC1CCN(c2nnc(-c3ccnn3C)c3ccccc23)CC1 [Example 17, 1-[4-(2-methylpyrazol-3-yl)phthalazin-1-yl]-N-[(2-methylsulfanylphenyl)methyl]piperidin-4-amine] |  | 6.70 to 8.00 | 
10 | Cn1nccc1-c1nnc(N2CCC(NCc3ccc(F)nc3C(F)(F)F)CC2)c2ccccc12 [Example 18, N-[[6-fluoro-2-(trifluoromethyl)-3-pyridyl]methyl]-1-[4-(2-methylpyrazol-3-yl)phthalazin-1-yl]piperidin-4-amine] |  | 6.70 to 8.00 | 
11 | Cn1nccc1-c1nnc(N2CCC(NCc3ccc(F)cc3Cl)CC2)c2ccccc12 [Example 19, N-[(2-chloro-4-fluoro-phenyl)methyl]-1-[4-(2-methylpyrazol-3-yl)phthalazin-1-yl]piperidin-4-amine] |  | 6.70 to 8.00 | 
12 | Cn1nccc1-c1nnc(N2CCC(NCc3ccc(OC(F)(F)F)cc3)CC2)c2ccccc12 [Example 20, 1-[4-(2-methylpyrazol-3-yl)phthalazin-1-yl]-N-[[4-(trifluoromethoxy)phenyl]methyl]piperidin-4-amine] |  | 6.70 to 8.00 | 
13 | Cn1nccc1-c1nnc(N2CCC(NC(=O)Nc3ccccc3C(F)(F)F)CC2)c2ccccc12 [Example 21, 1-[1-[4-(2-methylpyrazol-3-yl)phthalazin-1-yl]-4-piperidyl]-3-[2-(trifluoromethyl)phenyl]urea] |  | > 8.00 | 

Further lines, results first:

Row | pIC50 (read-out: Gli luc IC50) | pIC50 [1] | IC50 (NIH3T3) | Compound
14 |  | > 8.00 |  | Cn1nccc1-c1nnc(N2CCC(NC(=O)Nc3cccc(C#N)c3)CC2)c2ccccc12 [Example 22, 1-(3-cyanophenyl)-3-[1-[4-(2-methylpyrazol-3-yl)phthalazin-1-yl]-4-piperidyl]urea]
15 |  | > 8.00 | 0.66 nM | Cn1nccc1-c1nnc(N2CCC(NC(=O)Nc3ccc(F)cc3C(F)(F)F)CC2)c2ccccc12 [Example 23, 1-[4-fluoro-2-(trifluoromethyl)phenyl]-3-[1-[4-(2-methylpyrazol-3-yl)phthalazin-1-yl]-4-piperidyl]urea]
16 |  | > 8.00 |  | COc1cccc(NC(=O)NC2CCN(c3nnc(-c4ccnn4C)c4ccccc34)CC2)c1 [Example 24, 1-(3-methoxyphenyl)-3-[1-[4-(2-methylpyrazol-3-yl)phthalazin-1-yl]-4-piperidyl]urea]
17 |  | > 8.00 |  | Cn1nccc1-c1nnc(N2CCC(NC(=O)Nc3ccccc3OC(F)(F)F)CC2)c2ccccc12 [Example 25, 1-[1-[4-(2-methylpyrazol-3-yl)phthalazin-1-yl]-4-piperidyl]-3-[2-(trifluoromethoxy)phenyl]urea]
18 |  | > 8.00 |  | Cn1nccc1-c1nnc(N2CCC(NC(=O)Nc3ccc(OC(F)F)cc3)CC2)c2ccccc12 [Example 26, 1-[4-(difluoromethoxy)phenyl]-3-[1-[4-(2-methylpyrazol-3-yl)phthalazin-1-yl]-4-piperidyl]urea]
19 |  | 6.70 to 8.00 |  | CN(Cc1ccc(F)nc1F)C1CCN(c2nnc(-c3ccnn3C)c3ccccc23)CC1 [Example 27, N-[(2,6-difluoro-3-pyridyl)methyl]-N-methyl-1-[4-(2-methylpyrazol-3-yl)phthalazin-1-yl]piperidin-4-amine]
20 |  | > 8.00 |  | CSc1ccccc1CN(C)C1CCN(c2nnc(-c3ccnn3C)c3ccccc23)CC1 [Example 28, N-methyl-1-[4-(2-methylpyrazol-3-yl)phthalazin-1-yl]-N-[(2-methylsulfanylphenyl)methyl]piperidin-4-amine]
21 |  | 6.70 to 8.00 |  | CC(C)c1ccccc1CN(C)C1CCN(c2nnc(-c3ccnn3C)c3ccccc23)CC1 [Example 29, N-[(2-isopropylphenyl)methyl]-N-methyl-1-[4-(2-methylpyrazol-3-yl)phthalazin-1-yl]piperidin-4-amine]
22 |  | > 8.00 |  | Cc1ccccc1CN(C)C1CCN(c2nnc(-c3ccnn3C)c3ccccc23)CC1 [Example 30, N-methyl-1-[4-(2-methylpyrazol-3-yl)phthalazin-1-yl]-N-(o-tolylmethyl)piperidin-4-amine]
23 |  | 6.70 to 8.00 |  | Cn1nccc1-c1nnc(N2CCC(NCc3ccccc3[N+](=O)[O-])CC2)c2ccccc12 [Example 31, 1-[4-(2-methylpyrazol-3-yl)phthalazin-1-yl]-N-[(2-nitrophenyl)methyl]piperidin-4-amine]
24 |  | > 8.00 |  | Cn1nccc1-c1nnc(N2CCC(NC(=O)Nc3ccc(C#N)cc3)CC2)c2ccccc12 [Example 32, 1-(4-cyanophenyl)-3-[1-[4-(2-methylpyrazol-3-yl)phthalazin-1-yl]-4-piperidyl]urea]
25 |  | 6.70 to 8.00 |  | CN(Cc1ccccc1C#N)C1CCN(c2nnc(-c3ccnn3C)c3ccccc23)CC1 [Example 33, 2-[[methyl-[1-[4-(2-methylpyrazol-3-yl)phthalazin-1-yl]-4-piperidyl]amino]methyl]benzonitrile]
26 |  | 6.70 to 8.00 |  | Cn1nccc1-c1nnc(N2CCC(NCc3cccc(OC(F)(F)F)c3)CC2)c2ccccc12 [Example 34, 1-[4-(2-methylpyrazol-3-yl)phthalazin-1-yl]-N-[[3-(trifluoromethoxy)phenyl]methyl]piperidin-4-amine]
27 |  | 6.70 to 8.00 |  | Cn1nccc1-c1nnc(N2CCC(NCc3ccc(Cl)cc3)CC2)c2ccccc12 [Example 35, N-[(4-chlorophenyl)methyl]-1-[4-(2-methylpyrazol-3-yl)phthalazin-1-yl]piperidin-4-amine]
28 |  | 6.70 to 8.00 |  | Cn1nccc1-c1nnc(N2CCC(NCc3ccccc3OC(F)(F)F)CC2)c2ccccc12 [Example 36, 1-[4-(2-methylpyrazol-3-yl)phthalazin-1-yl]-N-[[2-(trifluoromethoxy)phenyl]methyl]piperidin-4-amine]
